test system: not listed separately; experiment: log P by HPLC (EEC-Directive 79/831 Annex V. A8); assay type: physicochemical; conditions: gradient method, acetonitrile/0.1% aqueous phosphoric acid
Procedure: The log P values were determined according to EEC-Directive 79/831 Annex V. A8 by HPLC (gradient method, acetonitrile/0.1% aqueous phosphoric acid).

Going from Cc1ccc(Oc2noc(=O)n2S(=O)(=O)c2c(C)noc2C)c(C)c1 [Example 5] to Cc1ccc(C(C)C)c(Oc2noc(=O)n2S(=O)(=O)c2c(C)noc2C)c1 [Example 4], the chromatographic logP rises from 3.63 to 4.19.

Compared with Cc1cccc(C)c1Oc1noc(=O)n1S(=O)(=O)c1c(C)noc1C [Example 3], Cc1ccccc1Oc1noc(=O)n1S(=O)(=O)c1c(C)noc1C [Example 7] is lower in chromatographic logP: 3.54 for the first, 3.28 for the second.

First: Cc1noc(C)c1S(=O)(=O)n1c(Oc2ccc(Cl)cc2)noc1=O [Example 8]
Second: COC(=O)c1ccc(Oc2noc(=O)n2S(=O)(=O)c2c(C)noc2C)cc1 [Example 2]
The chromatographic logP of the first is higher: 3.45 for the first, 3.07 for the second.

test system: Phytophthora infestans; experiment: whole plant or invertebrate; assay type: in vivo, Phytophthora infestans (on tomato plants); conditions: in Solanum lycopersicum, 72 h, read-out: Efficacy in %

First: Cc1cccc(C)c1Oc1noc(=O)n1S(=O)(=O)c1c(C)noc1C [drawing 41]
Second: Cc1ccc(Oc2noc(=O)n2S(=O)(=O)c2c(C)noc2C)cc1C
The pest or weed control at 50 g/ha of the first is lower: 88% for the first, 95% for the second.

Cc1ccc(C)c(Oc2noc(=O)n2S(=O)(=O)c2c(C)noc2C)c1 and Cc1ccc(Oc2noc(=O)n2S(=O)(=O)c2c(C)noc2C)c(C)c1 [drawing 40] are the same in pest or weed control at 50 g/ha: 94% for the first, 94% for the second.

First: COC(=O)c1ccc(Oc2noc(=O)n2S(=O)(=O)c2c(C)noc2C)cc1 [drawing 39]
Second: Cc1noc(C)c1S(=O)(=O)n1c(Oc2ccc(Cl)cc2)noc1=O [drawing 44]
The pest or weed control at 50 g/ha of the first is lower: 86% for the first, 97% for the second.

Compared with Cc1noc(C)c1S(=O)(=O)n1c(N(C)C2CCCCC2)noc1=O, Cc1ccccc1Oc1noc(=O)n1S(=O)(=O)c1c(C)noc1C [drawing 43] is higher in pest or weed control at 50 g/ha: 85% for the first, 94% for the second.

Compared with Cc1ccc(C(C)C)c(Oc2noc(=O)n2S(=O)(=O)c2c(C)noc2C)c1 [drawing 42], Cc1ccc(C)c(Oc2noc(=O)n2S(=O)(=O)c2c(N)noc2C)c1 is higher in pest or weed control at 50 g/ha: 95% for the first, 96% for the second.

Cc1ccc(Oc2noc(=O)n2S(=O)(=O)c2c(N)noc2C)cc1C and Cc1cc(C)cc(Oc2noc(=O)n2S(=O)(=O)c2c(N)noc2C)c1 are the same in pest or weed control at 50 g/ha: 95% for the first, 95% for the second.

Compared with Cc1cc(C)cc(Oc2noc(=O)n2S(=O)(=O)c2c(C)noc2C)c1, COc1ccc(Oc2noc(=O)n2S(=O)(=O)c2c(N)noc2C)cc1 is lower in pest or weed control at 50 g/ha: 96% for the first, 91% for the second.

Reference: patent US6136830A, “Sulphonyloxadiazolones and their use as microbicides” (Bayer Aktiengesellschaft, priority 1997, dated 2000)
